≈ marks a conversion by molar mass, not a printed value.
Key:
[1] = test system: Candida albicans; test: Antifungal activity against Candida albicans MTCC 227 assessed as zone of inhibition at 100 ug/ml after 30 hrs by cup plate method; assay type: functional; settings: MTCC 227, 30 h, read-out: IZ
[2] = test system: Candida albicans; test: Antifungal activity against Candida albicans MTCC 227 after 30 hrs by serial dilution method; assay type: functional; settings: MTCC 227, 30 h
[3] = test system: Aspergillus flavus; test: Antifungal activity against Aspergillus flavus MTCC 277 assessed as zone of inhibition at 100 ug/ml after 30 hrs by cup plate method; assay type: functional; settings: MTCC 277, 30 h, read-out: IZ
[4] = test system: Aspergillus flavus; test: Antifungal activity against Aspergillus flavus MTCC 277 after 30 hrs by serial dilution method; assay type: functional; settings: MTCC 277, 30 h
[5] = test system: Aspergillus fumigatus; test: Antifungal activity against Aspergillus fumigatus MTCC 343 assessed as zone of inhibition at 100 ug/ml after 30 hrs by cup plate method; assay type: functional; settings: MTCC 343, 30 h, read-out: IZ
[6] = test system: Aspergillus fumigatus; test: Antifungal activity against Aspergillus fumigatus MTCC 343 after 30 hrs by serial dilution method; assay type: functional; settings: MTCC 343, 30 h
[7] = test system: Aspergillus niger; test: Antifungal activity against Aspergillus niger MTCC 282 assessed as zone of inhibition at 100 ug/ml after 30 hrs by cup plate method; assay type: functional; settings: MTCC 282, 30 h, read-out: IZ
[8] = test system: Aspergillus niger; test: Antifungal activity against Aspergillus niger MTCC 282 after 30 hrs by serial dilution method; assay type: functional; settings: MTCC 282, 30 h
[9] = test system: Klebsiella pneumoniae; test: Antibacterial activity against Klebsiella pneumoniae MTCC 432 assessed as zone of inhibition at 100 ug/ml after 14 hrs by cup plate method; assay type: functional; settings: MTCC 432, 14 h, read-out: IZ
[10] = test system: Klebsiella pneumoniae; test: Antibacterial activity against Klebsiella pneumoniae MTCC 432 after 14 hrs by serial dilution method; assay type: functional; settings: MTCC 432, 14 h
[11] = test system: Salmonella typhi; test: Antibacterial activity against Salmonella typhi MTCC 733 assessed as zone of inhibition at 100 ug/ml after 14 hrs by cup plate method; assay type: functional, Salmonella enterica subsp. enterica serovar Typhi; settings: Salmonella enterica, MTCC 733, 14 h; read-out: IZ
[12] = test system: Salmonella typhi; test: Antibacterial activity against Salmonella typhi MTCC 733 after 14 hrs by serial dilution method; assay type: functional, Salmonella enterica subsp. enterica serovar Typhi; settings: Salmonella enterica, MTCC 733, 14 h
[13] = test system: Escherichia coli; test: Antibacterial activity against Escherichia coli MTCC 443 assessed as zone of inhibition at 100 ug/ml after 14 hrs by cup plate method; assay type: functional; settings: MTCC 443, 14 h, read-out: IZ
[14] = test system: Bacillus subtilis; test: Antibacterial activity against Bacillus subtilis MTCC 441 after 14 hrs by serial dilution method; assay type: functional; settings: MTCC 441, 14 h
[15] = test system: Staphylococcus aureus; test: Antibacterial activity against Staphylococcus aureus MTCC 096 assessed as zone of inhibition at 100 ug/ml after 14 hrs by cup plate method; assay type: functional; settings: MTCC 096, 14 h, read-out: IZ
[16] = test system: Staphylococcus aureus; test: Antibacterial activity against Staphylococcus aureus MTCC 096 after 14 hrs by serial dilution method; assay type: functional; settings: MTCC 096, 14 h
[17] = test system: Escherichia coli; test: Antibacterial activity against Escherichia coli MTCC 443 after 14 hrs by serial dilution method; assay type: functional; settings: MTCC 443, 14 h
[18] = test system: Bacillus subtilis; test: Antibacterial activity against Bacillus subtilis MTCC 441 assessed as zone of inhibition at 100 ug/ml after 14 hrs by cup plate method; assay type: functional; settings: MTCC 441, 14 h, read-out: IZ

SMILES	zone of inhibition at 100 µg/mL [1] [mm]	MIC [2] [µg/mL]	zone of inhibition at 100 µg/mL [3] [mm]	MIC [4] [µg/mL]	zone of inhibition at 100 µg/mL [5] [mm]	MIC [6] [µg/mL]	zone of inhibition at 100 µg/mL [7] [mm]	MIC [8] [µg/mL]	zone of inhibition at 100 µg/mL [9] [mm]	MIC [10] [µg/mL]	zone of inhibition at 100 µg/mL [11] [mm]	MIC [12] [µg/mL]	zone of inhibition at 100 µg/mL [13] [mm]	MIC [14] [µg/mL]	zone of inhibition at 100 µg/mL [15] [mm]	MIC [16] [µg/mL]	MIC [17] [µg/mL]	zone of inhibition at 100 µg/mL [18] [mm]
O=C1c2ccccc2C(=O)N1CCCCOc1cc(C(F)(F)F)nc2ccc(F)cc12	15	6.25 (≈ 14.5 µM)	12	12.5 (≈ 28.9 µM)	12	12.5 (≈ 28.9 µM)	17	6.25 (≈ 14.5 µM)	12	12.5 (≈ 28.9 µM)	12	12.5 (≈ 28.9 µM)	< 10	6.25 (≈ 14.5 µM)	15	6.25 (≈ 14.5 µM)	25 (≈ 57.8 µM)	15
Cc1ccc2nc(C(F)(F)F)cc(OCCCCN3C(=O)c4ccccc4C3=O)c2c1	15	6.25 (≈ 14.6 µM)	< 10	50 (≈ 117 µM)	12	12.5 (≈ 29.2 µM)	17	6.25 (≈ 14.6 µM)	15	6.25 (≈ 14.6 µM)	12	12.5 (≈ 29.2 µM)	< 10	6.25 (≈ 14.6 µM)	15	6.25 (≈ 14.6 µM)	50 (≈ 117 µM)	15
O=c1cc(C(F)(F)F)n(CCCCN2CCCCC2)c2ccc(F)cc12	15	6.25 (≈ 16.9 µM)	12	12.5 (≈ 33.7 µM)	< 10	25 (≈ 67.5 µM)	12	12.5 (≈ 33.7 µM)	12	12.5 (≈ 33.7 µM)	< 10	50 (≈ 135 µM)	< 10	25 (≈ 67.5 µM)	12	12.5 (≈ 33.7 µM)	50 (≈ 135 µM)	< 10
O=c1cc(C(F)(F)F)n(CCCCN2CCOCC2)c2ccc(F)cc12	15	6.25 (≈ 16.8 µM)	< 10	25 (≈ 67.1 µM)	< 10	25 (≈ 67.1 µM)	13	12.5 (≈ 33.6 µM)	< 10	25 (≈ 67.1 µM)	< 10	25 (≈ 67.1 µM)	< 10	12.5 (≈ 33.6 µM)	15	6.25 (≈ 16.8 µM)	50 (≈ 134 µM)	13
CN1CCN(CCCCn2c(C(F)(F)F)cc(=O)c3cc(F)ccc32)CC1	12	12.5 (≈ 32.4 µM)	< 10	25 (≈ 64.9 µM)	12	12.5 (≈ 32.4 µM)	14	6.25 (≈ 16.2 µM)	< 10	25 (≈ 64.9 µM)	< 10	50 (≈ 130 µM)	< 10	6.25 (≈ 16.2 µM)	15	6.25 (≈ 16.2 µM)	50 (≈ 130 µM)	15
O=C(O)c1cn(C2CC2)c2cc(N3CCNCC3)c(F)cc2c1=O [CIPROFLOXACIN]	–	–	–	–	–	–	–	–	18	6.25 (≈ 18.9 µM)	14	–	18	6.25 (≈ 18.9 µM)	17	–	–	18
Clc1ccc(COC(Cn2ccnc2)c2ccc(Cl)cc2Cl)c(Cl)c1 (stereo not given) [MICONAZOLE]	17	6.25 (≈ 15 µM)	17	6.25 (≈ 15 µM)	14	12.5 (≈ 30 µM)	17	6.25 (≈ 15 µM)	–	–	–	–	–	–	–	–	–	–

Reference: ChEMBL document CHEMBL2380193, “New trifluoromethyl quinolone derivatives: synthesis and investigation of antimicrobial properties” (2013)
